Here are results for three compounds from patent publication US6770133B2, “Stable crystal of thiazolidinedione derivative and process for producing the same” (Kyorin Pharmaceutical Co., Ltd., priority 2000, dated 2004).

Series [1] in a line: Thermal analysis (thermal stability of the crystals). Format: physicochemical. The text has this:
Using the thermal analysis apparatus (Rigaku Denki; TAS-200), the thermal stability of the crystals were examined.

A short description of series [2]: Hygroscopicity of the crystals. Format: physicochemical.
The conditions of series [3]: M. Nomura et al, Bioorg. Med. Chem. Lett., 9 (1999) 533-538; cited from earlier work.
Setting [4] is: thermal analysis apparatus Rigaku Denki TAS-200.

As for `COc1ccc(CC2SC(=O)NC2=O)cc1C(=O)NCc1ccc(C(F)(F)F)cc1` (stereo not drawn) [conventional crystals, 5-[(2,4-dioxothiazolidin-5-yl)methyl]-2-methoxy-N-[[4-(trifluoromethyl)phenyl]methyl]benzamide, reference compound], the endothermic peak in series [1] (setting [4]) stood at 186.3 °C.

With `COc1ccc(CC2SC(=O)NC2=O)cc1C(=O)NCc1ccc(C(F)(F)F)cc1` (stereo not drawn) [novel crystal, 5-[(2,4-dioxothiazolidin-5-yl)methyl]-2-methoxy-N-[[4-(trifluoromethyl)phenyl]methyl]benzamide], the “thermal stability compared with the conventional crystal” value in series [1] (conclusion from thermal analysis) was “more thermally stable”. Also, in series [1] (setting [4]), the endothermic peak came out at 196.2 °C and the “endothermic phenomena observed from (onset)” value came to 194.8 °C. For the same compound, the hygroscopicity entry in series [2] was “no hygroscopicity”.

Turning to `COc1ccc(CC2SC(=O)NC2=O)cc1C(=O)NCc1ccc(C(F)(F)F)cc1` (stereo not drawn) [KRP-297, 5-[(2,4-dioxothiazolidin-5-yl)methyl]-2-methoxy-N-[[4-(trifluoromethyl)phenyl]methyl]benzamide], in series [3], the glucose-lowering activity entry is “very excellent glucose-lowering activity”.
